According to US20120270300A1, “PRODUCTION OF RECOMBINANT FACTOR IX IN A HUMAN HEPATOCYTE CELL LINE” (Universite Claude Bernard Lyon I, priority 2009, published 2012):
Like-named read-outs stand apart in the source and are kept apart here.

Key:
[1] = system: Huh7 cells transiently transfected with pcDNAFIXwt; assay: Effects of protein degradation inhibitors on the intracellular level of FIXwt (ELISA on lysates); type: cell-based, human; conditions: for Intracellular FIX level (mean ± SE): 6 h treatment, 36 h after transfection, % relative to nontreated cell lysates, NH4Cl 50 mM/l, beta-lactone 10 μM/l, brefeldin A 10 μg/ml
Description: Huh7 cells (1×10^6 cells/dish) were transiently transfected at 80% confluence in 60 mm culture dishes. Thirty-six hours after transfection, the cells were incubated in FBS-free medium containing 10 μM/l of clasto-lactacystin β-lactone (Calbiochem, France Biochem, Meudon, France), 50 mM/l of ammonium chloride, or 10 μg/ml of brefeldin A (Sigma Aldrich). The medium was renewed every 2 hours.
The cell lysates were harvested 6 h later and prepared in 120 μl of cold lysis buffer. The FIX antigen concentration was quantified on the lysates by means of an ELISA assay. The results are expressed as percentage of values obtained relative to the nontreated control lysates. The comparisons were carried out by application of Fisher's test using the Stat View® software.
Thirty-six hours after transfection, the inhibitors were added to the culture medium and left for 6 h. The intracellular FIX concentrations were measured after treatment by means of an ELISA assay (the values are expressed as % of FIX relative to the values obtained in the nontreated cell lysates). The results are brought together in table 1 below and correspond to three independent transfections.

[2] = system: factor IX-deficient plasma; assay: Specific coagulation activity, one-step chronometric aPTT test, related back to Benefix (aPTT/ELISA); type: biochemical
Description: The term “biologically active FIX” is intended to mean a factor IX of which the specific coagulation activity is at least 100%. The recombinant FIX secreted into the culture medium of the present invention preferably has a specific coagulation activity of from 150 to 200%, preferably from 170 to 200%. The specific coagulation activity of the factor IX is determined by means of the technique termed chronometric time technique by measuring the partial thromboplastin time (PTT) or activated partial thromboplastin time (aPTT) which is a semi-overall test of blood coagulation which uses a coagulometer. The test used is detailed in the examples. In this test, Benefix® has a specific activity of 100%.
The specific coagulation activity of the factor IX is determined using the technique termed chronometric time technique by measuring the partial thromboplastin time (PTT) or activated partial thromboplastin time (aPTT) according to K. J. Smith et al., Blood, 72, 1269-1277 (1988), which is a semi-overall one-step blood coagulation test with an MDA II® or else Destiny Max coagulometer (Trinity Biotech, Dublin, Ireland). For this, fifty microliters of sample are diluted to 1/10th in imidazole buffer (Trinity Biotech, Bray, Ireland). […] The coagulation time is measured by means of a coagulometer using an MDA II® or else Destiny Max automated device (Trinity Biotech, Bray, Ireland). […]

[3] = versus plasma FIX (Mononine); cited from earlier work
[4] = hemophilia B patients, versus plasma FIX (Mononine); cited from earlier work
[5] = system: factor IX-deficient plasma; conditions: FIX from HepG2 cells with viral vectors, published by Chen et al.; cited from earlier work
[6] = system: factor IX-deficient plasma; assay: aPTT coagulation test under the conditions of Chen et al., related to standard plasma values, converted into ng/ml; type: biochemical; conditions: Huh7-CD4 clone
Description: A comparative study with respect to the works of Chen et al., 1997, was carried out. In these experiments, 1×10^6 cells of the Huh7-CD4 clone were seeded into 6-well plates. The following day, the medium was renewed and left in the presence of the producer cells for 24 hours. The FIX concentrations in this medium are determined using the Asserachrom IX:Ag ELISA kit (Diagnostica Stago). The activity of the FIX secreted into this medium is determined in a one-step coagulation test (aPTT) with an MDA II or else Destiny Max coagulometer (Trinity Biotech, Dublin, Ireland) as described above. The activity of the factor IX is determined from standard plasma values (Standard Human Plasma, Siemens Marburg, Germany, calibrated against a WHO—World Health Organization—standard) by means of a log-log curve. […] The specific activity of the FIX resulting from the Huh7-CD4 clone is calculated according to the ratio between the coagulant activity read for the sample, related back to the standard plasma values, and its FIX concentration (aPTT/ELISA).
Moreover, the specific activity of the FIX produced by the Huh7-CD4 line was determined according to the conditions determined by Chen et al. The ratio between the concentrations measured by the aPTT method (ng/ml) and measured by ELISA (ng/ml) was calculated on the basis of five different assays. […]

With `CC(C)[C@H](O)[C@@]12NC(=O)[C@H](C)[C@@H]1OC2=O` [Beta-lactone, clasto-lactacystin β-lactone] the “Intracellular FIX level (mean ± SE)” value [1] was 50.1% +/− 25.8 and the “Intracellular FIX level (mean ± SE)” value ([1]; listed as clasto-lactacystin β-lactone) was “no significant effect”.

In the case of `C[C@H]1CCC/C=C/[C@@H]2C[C@H](O)C[C@H]2[C@H](O)/C=C/C(=O)O1` [Brefeldin A, brefeldin A], the “Intracellular FIX level (mean ± SE)” value [1] is reported as 254.4% +/− 21.4 and the “increase of intracellular FIXwt level compared with that without inhibitor” value ([1]; after incubation with brefeldin A, p=0.005) is reported as 370%.

In the case of “Benefix: marketed recombinant FIX (Wyeth) synthesized by CHO cells stably transfected with the FIX cDNA”, the “specific activity relative to that of Benefix” value ([2]; culture supernatants of transiently transfected Huh7 cells, 36 h after transfection, Benefix = 100%) is given as 100%, the “specific activity compared with FIX of plasma origin” value [3] is given as “equivalent” and the “half-life in the blood stream compared with plasma FIX” value [4] is given as “similar”.

For “FIX/GCF9SN-MPSV: FIX produced with a viral vector in the HepG2 hepatocyte cell line by Chen et al., 1997”, the “% specific activity aPTT/ELISA” value [5] is given as 73.5 +/− 19.7% and the aPTT [5] is given as 55 ± 15 ng/mL.

For “FIX/GCNCF9: FIX produced with a viral vector in the HepG2 hepatocyte cell line by Chen et al., 1997”, the “% specific activity aPTT/ELISA” value [5] is listed as 93.7 +/− 11% and the aPTT [5] is listed as 120 ± 14 ng/mL.

With “FIXwt: recombinant human factor IX expressed in the human hepatocyte cell line Huh7 (transient, or stable clone Huh7-CD4) and secreted into the supernatant” the “specific activity improved by a factor” value ([2]; transiently transfected Huh7 cells, versus Benefix) was 1.7, the aPTT ([6]; 24 hours/10^6 cells, 5 μg/ml of FIX = 100%) was 740 ± 59 ng/mL and the “% specific activity aPTT/ELISA” value ([6]; related to standard plasma, five assays) was 161 +/− 37%.
